Converted amounts (≈) assume the structure as drawn. The source made the active and inactive calls. The rule behind the calls is not given here.
Assays:
Staphylococcus aureus [1] = experiment: Antibacterial activity against methicillin-resistant Staphylococcus aureus clinical strain 19449 assessed as inhibition of bacterial growth incubated for 18 hrs by broth microdilution method; format: functional
[2] = Cytotoxicity against human MRC5 cells assessed as reduction in cell viability incubated for 24 hrs by MTT assay; format: toxicity, cell-based
[3] = Induction of hemolysis in horse RBC at 200 uM incubated for 1 hr; format: toxicity, cell-based, Equus caballus, Erythrocyte; conditions: horse red blood cells (erythrocytes), read-out: Activity
[4] = test system: Staphylococcus epidermidis; experiment: Antibacterial activity against methicillin-susceptible Staphylococcus epidermidis ATCC 12228 assessed as inhibition of bacterial growth incubated for 18 hrs by broth microdilution method; format: functional
Pseudomonas aeruginosa = experiment: Antibacterial activity against Pseudomonas aeruginosa ATCC 27853 assessed as inhibition of bacterial growth incubated for 18 hrs by broth microdilution method; format: functional
Klebsiella pneumoniae = experiment: Antibacterial activity against Klebsiella pneumoniae ATCC 700603 assessed as inhibition of bacterial growth incubated for 18 hrs by broth microdilution method; format: functional
Staphylococcus aureus [5] = experiment: Antibacterial activity against vancomycin-intermediate Staphylococcus aureus ATCC 700699 assessed as inhibition of bacterial growth incubated for 18 hrs by broth microdilution method; format: functional
[6] = test system: Staphylococcus epidermidis; experiment: Antibacterial activity against linezolid-resistant Staphylococcus epidermidis NIL 4399/19 assessed as inhibition of bacterial growth incubated for 18 hrs by broth microdilution method; format: functional
Staphylococcus aureus [7] = experiment: Antibacterial activity against biofilm producer Staphylococcus aureus RN450 assessed as inhibition of bacterial growth incubated for 18 hrs by broth microdilution method; format: functional
Streptococcus pneumoniae = experiment: Antibacterial activity against Streptococcus pneumoniae ATCC 49619 assessed as inhibition of bacterial growth incubated for 18 hrs by broth microdilution method; format: functional
Enterococcus faecium = experiment: Antibacterial activity against vancomycin-resistant Enterococcus faecium assessed as inhibition of bacterial growth incubated for 18 hrs by broth microdilution method; format: functional
Staphylococcus aureus [8] = experiment: Antibacterial activity against methicillin-susceptible Staphylococcus aureus ATCC 25923 assessed as inhibition of bacterial growth incubated for 18 hrs by broth microdilution method; format: functional
Enterococcus faecalis = experiment: Antibacterial activity against Enterococcus faecalis ATCC 29212 assessed as inhibition of bacterial growth incubated for 18 hrs by broth microdilution method; format: functional
Escherichia coli = experiment: Antibacterial activity against Escherichia coli ATCC 25922 assessed as inhibition of bacterial growth incubated for 18 hrs by broth microdilution method; format: functional
[9] = test system: Staphylococcus epidermidis; experiment: Antibacterial activity against biofilm producer Staphylococcus epidermidis ATCC 35984 assessed as inhibition of bacterial growth incubated for 18 hrs by broth microdilution method; format: functional
[10] = Cytotoxicity against human BJ cells assessed as reduction in cell viability incubated for 24 hrs by MTT assay; format: toxicity, cell-based

| SMILES | MIC (Staphylococcus aureus [1]) | IC50 at 24 h [2] | hemolysis at 1 h, 200 µM [3] | MIC [4] | Activity (Pseudomonas aeruginosa) | Activity (Klebsiella pneumoniae) | MIC (Staphylococcus aureus [5]) | MIC [6] | MIC (Staphylococcus aureus [7]) | MIC (Streptococcus pneumoniae) | MIC (Enterococcus faecium) | MIC (Staphylococcus aureus [8]) | MIC (Enterococcus faecalis) | Activity (Escherichia coli) | MIC [9] | IC50 at 24 h [10] |
| --- | --- | --- | --- | --- | --- | --- | --- | --- | --- | --- | --- | --- | --- | --- | --- | --- |
| O=C(Nc1cccc(Cl)c1)N[C@H]1CCN(CCC(Oc2ccc(Cl)cc2)c2ccccc2)C1 (stereo partly drawn) | 6.25 µg/mL (≈ 12.9 µM) | 3.12 µg/mL (≈ 6.45 µM) | 11% | 1.56 µg/mL (≈ 3.22 µM) | inactive | inactive | 1.56 µg/mL (≈ 3.22 µM) | 6.25 µg/mL (≈ 12.9 µM) | 3.12 µg/mL (≈ 6.45 µM) | 6.25 µg/mL (≈ 12.9 µM) | 3.12 µg/mL (≈ 6.45 µM) | 6.25 µg/mL (≈ 12.9 µM) | 3.12 µg/mL (≈ 6.45 µM) | inactive | 3.12 µg/mL (≈ 6.45 µM) | 6.25 µg/mL (≈ 12.9 µM) |
| O=C(Nc1cccc(Cl)c1)N[C@H]1CCN(CCC(Oc2cccc(Cl)c2)c2ccccc2)C1 (stereo partly drawn) | 3.12 µg/mL (≈ 6.45 µM) | 3.12 µg/mL (≈ 6.45 µM) | 8% | 3.12 µg/mL (≈ 6.45 µM) | inactive | inactive | 3.12 µg/mL (≈ 6.45 µM) | 3.12 µg/mL (≈ 6.45 µM) | 3.12 µg/mL (≈ 6.45 µM) | 6.25 µg/mL (≈ 12.9 µM) | 0.78 µg/mL (≈ 1.61 µM) | 3.12 µg/mL (≈ 6.45 µM) | 3.12 µg/mL (≈ 6.45 µM) | inactive | 3.12 µg/mL (≈ 6.45 µM) | 6.25 µg/mL (≈ 12.9 µM) |
| COc1ccccc1OC(CCN1CCC(NC(=O)Nc2cccc(Cl)c2)CC1)c1ccccc1 (stereo not drawn) | > 12.5 µg/mL |  |  | > 12.5 µg/mL | inactive | inactive | > 12.5 µg/mL | > 12.5 µg/mL | > 12.5 µg/mL | > 12.5 µg/mL |  | > 12.5 µg/mL |  | inactive | 12.5 µg/mL (≈ 25.3 µM) |  |
| O=C(Nc1cccc(F)c1)NC1CCN(CCC(Oc2ccc(C(F)(F)F)cc2)c2ccccc2)CC1 (stereo not drawn) | 3.12 µg/mL (≈ 6.06 µM) |  |  | 3.12 µg/mL (≈ 6.06 µM) | inactive | inactive | 6.25 µg/mL (≈ 12.1 µM) | 3.12 µg/mL (≈ 6.06 µM) | 1.56 µg/mL (≈ 3.03 µM) | 6.25 µg/mL (≈ 12.1 µM) | 0.78 µg/mL (≈ 1.51 µM) | 6.25 µg/mL (≈ 12.1 µM) | 3.12 µg/mL (≈ 6.06 µM) | inactive | 3.12 µg/mL (≈ 6.06 µM) |  |
| O=C(Nc1cccc(Cl)c1)N[C@@H]1CCN(CCC(Oc2ccc(C(F)(F)F)cc2)c2ccccc2)C1 (stereo partly drawn) | 3.12 µg/mL (≈ 6.03 µM) | 3.12 µg/mL (≈ 6.03 µM) | 9% | 3.12 µg/mL (≈ 6.03 µM) | inactive | inactive | 3.12 µg/mL (≈ 6.03 µM) | 3.12 µg/mL (≈ 6.03 µM) | 1.56 µg/mL (≈ 3.01 µM) | 6.25 µg/mL (≈ 12.1 µM) | 1.56 µg/mL (≈ 3.01 µM) | 3.12 µg/mL (≈ 6.03 µM) | 3.12 µg/mL (≈ 6.03 µM) | inactive | 1.56 µg/mL (≈ 3.01 µM) | 3.12 µg/mL (≈ 6.03 µM) |
| O=C(Nc1cccc(Cl)c1)NC1CCN(CCC(Oc2ccc(C(F)(F)F)cc2)c2ccccc2)CC1 (stereo not drawn) | 6.25 µg/mL (≈ 11.7 µM) |  |  | 0.78 µg/mL (≈ 1.47 µM) | inactive | inactive | 6.25 µg/mL (≈ 11.7 µM) | 3.12 µg/mL (≈ 5.87 µM) | 3.12 µg/mL (≈ 5.87 µM) | > 12.5 µg/mL | 1.56 µg/mL (≈ 2.93 µM) | 0.78 µg/mL (≈ 1.47 µM) | 6.25 µg/mL (≈ 11.7 µM) | inactive | 3.12 µg/mL (≈ 5.87 µM) |  |
| O=C(Nc1cccc(Cl)c1)N[C@H]1CCN(CCC(Oc2ccc(C(F)(F)F)cc2)c2ccccc2)C1 (stereo partly drawn) | 3.12 µg/mL (≈ 6.03 µM) | 3.12 µg/mL (≈ 6.03 µM) | 10% | 1.56 µg/mL (≈ 3.01 µM) | inactive | inactive | 1.56 µg/mL (≈ 3.01 µM) | 1.56 µg/mL (≈ 3.01 µM) | 1.56 µg/mL (≈ 3.01 µM) | 6.25 µg/mL (≈ 12.1 µM) | 0.78 µg/mL (≈ 1.51 µM) | 3.12 µg/mL (≈ 6.03 µM) | 3.12 µg/mL (≈ 6.03 µM) | inactive | 3.12 µg/mL (≈ 6.03 µM) | 6.25 µg/mL (≈ 12.1 µM) |
| O=C(Nc1cccc(Cl)c1)N1CCN(CCC(Oc2ccc(C(F)(F)F)cc2)c2ccccc2)CC1 (racemic) | > 12.5 µg/mL |  |  | > 12.5 µg/mL | inactive | inactive | > 12.5 µg/mL | > 12.5 µg/mL | > 12.5 µg/mL | > 12.5 µg/mL |  | > 12.5 µg/mL |  | inactive | > 12.5 µg/mL |  |
| O=C(Nc1cccc(Cl)c1)NC1CCN(CCC(Oc2cccc(F)c2)c2ccccc2)CC1 (racemic) | 6.25 µg/mL (≈ 13 µM) |  |  | 6.25 µg/mL (≈ 13 µM) | inactive | inactive | 6.25 µg/mL (≈ 13 µM) | 6.25 µg/mL (≈ 13 µM) | 3.12 µg/mL (≈ 6.48 µM) | 12.5 µg/mL (≈ 25.9 µM) | 1.56 µg/mL (≈ 3.24 µM) | 6.25 µg/mL (≈ 13 µM) | 6.25 µg/mL (≈ 13 µM) | inactive | 3.12 µg/mL (≈ 6.48 µM) |  |
| O=C(Nc1ccc(F)cc1)NC1CCN(CCC(Oc2ccc(C(F)(F)F)cc2)c2ccccc2)CC1 (racemic) | 3.12 µg/mL (≈ 6.06 µM) |  |  | 6.25 µg/mL (≈ 12.1 µM) | inactive | inactive | 6.25 µg/mL (≈ 12.1 µM) | 3.12 µg/mL (≈ 6.06 µM) | 3.12 µg/mL (≈ 6.06 µM) | > 12.5 µg/mL | 3.12 µg/mL (≈ 6.06 µM) | 6.25 µg/mL (≈ 12.1 µM) | 6.25 µg/mL (≈ 12.1 µM) | inactive | 3.12 µg/mL (≈ 6.06 µM) |  |

Source: ChEMBL document CHEMBL5346933, “Design and synthesis of novel arylurea derivatives of aryloxy(1-phenylpropyl) alicyclic diamines with antimicrobial activity against multidrug-resistant Gram-positive bacteria” (Eur J Med Chem, 2023)
